Data reported in paper PMC11995238, “Discovery of Highly Potent BET Inhibitors based on a Tractable Tricyclic Scaffold” (ACS Medicinal Chemistry Letters, 2025).
In brackets after ≈: the same amount, converted by molar mass. Several values for one entry are separate records, joined by “and”; a condition that tells them apart may be missing. Identical values can stand only once. Like-named read-outs stand apart in the source and are kept apart here.

Experiments:
BRD4-BD1 [1] = molecular target: T1, BRD4-BD1 (Homo sapiens, UniProt O60885); assay: BRD4-BD1 FRET binding; conditions: for pIC50 ± SD: n = 4
Description: (§1) Potency was determined against BRD4-BD1 using FRET binding, with this being treated as a surrogate of BRD4 activity given the homology between BD1 and BD2 across the BET proteins. , PFI is calculated from hydrophobicity plus aromatic ring count (chromatographic (chrom) logD7.4 + #Ar), with this metric being indicative of developability, or likelihood of progression to a drug candidate. PFI was used to assess the physicochemical profile of compounds, with a target of PFI < 7 as risks for several parameters, including solubility, are increased above this upper limit. Our objective was to develop a BET inhibitor with high potency and favorable physicochemical properties, as determined using PFI and LipE to guide compound optimization.

BRD4-BD1 [2] = molecular target: T1, BRD4-BD1; assay: lipophilic efficiency (LipE = pIC50 – cLogP); conditions: predicted using Data Warrior
Description: The final BET inhibitor discussed is BMS-986158 (4) (Figure ).

[3] = hydrophobicity (chrom LogD7.4) and property forecast index (PFI); format: physicochemical; conditions: for PFI: PFI = chrom LogD7.4 + #Ar; for chromatographic logD: pH 7.4, chromatographic
Description: as §1
(§2) hydrophobicity (chrom LogD7.4), solubility (CAD), permeability (PAMPA)
(§3) and metabolic stability (CLint) have all been described previously.1

[4] = parallel artificial membrane permeability assay (PAMPA); format: in vitro ADME
Description: Additionally, the in vitro permeability of these compounds was determined by a parallel artificial membrane permeability assay (PAMPA). […] This would be protonated at physiological pH and decrease the overall affinity of the compound toward the hydrophobic membrane region.
as §2, §3

[5] = in vitro metabolic stability in rat liver microsomes (CLint); format: in vitro ADME, rats; conditions: n = 1
Description: (§4) For both enantiomers, kinetic solubility, permeability and metabolic stability data, the latter measured by in vitro microsomal intrinsic clearance (CLint) in rats and humans, was collected (Table ). , Docking of 44 and 45 into the BRD4-BD1 binding pocket was also carried out (Figures S3–4).
as §2, §3

[6] = kinetic solubility by CAD; format: physicochemical; conditions: n = 1
Description: as §4, §2, §3

[7] = in vitro metabolic stability in human liver microsomes (CLint); format: in vitro ADME, humans; conditions: n = 1
Description: as §4, §2, §3

tumor cell = conditions: advanced malignancies such as AML; cited from earlier work
c-Myc expression = conditions: advanced malignancies such as AML; cited from earlier work
BRD4 [8] = conditions: BRD4, FRET binding; cited from earlier work
[9] = cited from earlier work
BRD4 [10] = conditions: BRD4, AlphaScreen; cited from earlier work
[11] = tested on: panel of human lung cancer cell lines; conditions: reported; cited from earlier work
BRD4 [12] = conditions: binding to BRD4, reported; cited from earlier work
BRD3 = conditions: binding to BRD3, reported; cited from earlier work
BRD2 = conditions: binding to BRD2, reported; cited from earlier work
BRD4 [13] = conditions: BRD4, fluorescence polarization; cited from earlier work
[14] = Phase I studies; cited from earlier work
[15] = BRD4-BD1, FRET binding, n = 2, enantiomers
[16] = BRD4-BD1, values for 29, 30, 40

SMILES | pIC50 ± SD (BRD4-BD1 [1]; BRD4-BD1, FRET binding) | LipE (BRD4-BD1 [2]) | PFI [3] | Papp [4] | also measured
COCCNc1nnc2c(n1)[nH]c1cc(-c3c(C)noc3C)ccc12 [Compound 5a] | 6.22 ± 0.05 | 4.39 | 6.83 |  | 
COCCNc1nnc2c(n1)[nH]c1ccc(-c3c(C)noc3C)cc12 [Compound 5b] | 5.64 ± 0.05 | 3.82 | 6.78 |  | 
Cc1nnn(C)c1-c1ccc2c3nnc(NCCO)nc3n([C@@H](c3ccccn3)C3CCOCC3)c2c1 (single isomer, unassigned) [Compound 44] |  | 6.16 | 7.14 | 7.78 ×10⁻⁶ cm/s | pIC50 (BRD4-BD1 [1]; [15]): 8.35 ± 0.01; chromatographic logD [3]: 2.14; microsomal CLint [5]: < 10 µL/min/mg; Solubility [6]: 134 µg/mL (≈ 268 µM); microsomal CLint [7]: < 10 µL/min/mg
CCS(=O)(=O)Nc1ccc(Oc2ccc(F)cc2F)c(-c2cn(C)c(=O)c3[nH]ccc23)c1 [Compound 3, N-(4-(2,4-Difluorophenoxy)-3-(6-methyl-7-oxo-6,7-dihydro-1H-pyrrolo[2,3-c]pyridin-4-yl)phenyl)ethanesulfonamide] |  |  |  |  | tumor cell proliferation (tumor cell): inhibit tumor cell proliferation; c-Myc expression (c-Myc expression): effectively downregulate; pIC50 (BRD4 [8]): 8.82
Cc1sc2c(c1C)C(c1ccc(Cl)cc1)=N[C@@H](CC(=O)OC(C)(C)C)c1nnc(C)n1-2 [Compound 1, JQ1] |  |  |  |  | half-life [9]: 1 h; oral bioavailability [9]: low; tumor cell proliferation (tumor cell): inhibit tumor cell proliferation; c-Myc expression (c-Myc expression): effectively downregulate; pIC50 (BRD4 [10]): 7.10
COCCNc1nnc2c3cc(-c4c(C)noc4C)ccc3n(C(c3ccccc3)C3CCOCC3)c2n1 (stereo not drawn) [Compound 23] | 6.33 ± 0.03 | 1.75 | 10.7 |  | 
COCCNc1nnc2c3ccc(-c4c(C)noc4C)cc3n(C(c3ccccn3)C3CCOCC3)c2n1 (stereo not drawn) [Compound 24] | 8.01 ± 0.11 | 4.38 | 9.74 |  | 
COCCNc1nnc2c3cc(-c4c(C)noc4C)ccc3n(Cc3ccccc3)c2n1 [Compound 12b] | 6.08 ± 0.34 | 2.77 | 10.8 |  | 
Cc1nnn(C)c1-c1ccc2c3nnc(NCCO)nc3n(C(c3ccccn3)C3CCOCC3)c2c1 (stereo not drawn) [Compound 40] |  | 5.79 | 7.15 | 10.4 ×10⁻⁶ cm/s | pIC50 (BRD4-BD1 [1]; [16]): 7.98 ± 0.17
COCCNc1nnc2c3ccc(-c4c(C)noc4C)cc3n(C(c3ccccc3)C3CCOCC3)c2n1 (stereo not drawn) [Compound 22] | 8.27 ± 0.31 | 3.69 | 10.6 |  | 
Cc1nnn(C)c1-c1ccc2c3nnc(NCCO)nc3n([C@H](c3ccccn3)C3CCOCC3)c2c1 (single isomer, unassigned) [Compound 45] |  | 5.83 | 7.14 | 9.36 ×10⁻⁶ cm/s | pIC50 (BRD4-BD1 [1]; [15]): 8.02 ± 0.08; microsomal CLint [5]: < 10 µL/min/mg; Solubility [6]: 138 µg/mL (≈ 276 µM); microsomal CLint [7]: < 10 µL/min/mg
COCCNc1nnc2c3ccc(-c4c(C)noc4C)cc3n(C(c3ccccn3)C3CCNCC3)c2n1 (stereo not drawn) [Compound 28] | 7.74 ± 0.12 | 4.25 | 7.37 |  | 
COCCNc1nnc2c3cc(-c4c(C)noc4C)ccc3n(Cc3ccc(F)cc3)c2n1 [Compound 13b] | 6.18 ± 0.05 | 2.77 | 10.8 |  | 
COCCNc1nnc2c3ccc(-c4c(C)nnn4C)cc3n(C(c3ccccn3)C3CCNCC3)c2n1 (stereo not drawn) [Compound 30] |  | 4.93 | 6.46 and < 7 | < 0.3 ×10⁻⁶ cm/s | pIC50 (BRD4-BD1 [1]; [16]): 7.41 ± 0.03
Cc1noc(C)c1-c1ccc2c3nnc(NCCO)nc3n(C(c3ccccn3)C3CCNCC3)c2c1 (stereo not drawn) [Compound 29] |  | 4.23 | 6.74 and < 7 | < 0.3 ×10⁻⁶ cm/s | pIC50 (BRD4-BD1 [1]; [16]): 7.29 ± 0.06
COCCNc1nnc2c3ccc(-c4c(C)noc4C)cc3n(Cc3ccccc3)c2n1 [Compound 12a] | 7.53 ± 0.12 | 4.22 | 10.6 |  | 
Cc1nnn(C)c1-c1cnc2c3ccc(C(C)(C)O)cc3n([C@@H](c3ccccc3)C3CCOCC3)c2c1 (stereo in doubt) [Compound 4, BMS-986158, reference compound] |  | 3.51 | 9.08 | 49.8 ×10⁻⁶ cm/s | cytotoxicity [11]: potent cytotoxicity; IC50 (BRD4 [12]): 1.1 nM; IC50 (BRD3): 1.4 nM; chromatographic logD [3]: 4.08; Solubility [6]: 109 µg/mL (≈ 220 µM); IC50 (BRD2): 0.8 nM
COCCNc1nnc2c3ccc(-c4c(C)noc4C)cc3n(C(c3ccccc3)C3CCNCC3)c2n1 (stereo not drawn) [Compound 27] | 7.63 ± 0.05 | 3.20 | 7.96 |  | 
COc1cc2c(cc1-c1c(C)noc1C)ncc1[nH]c(=O)n([C@H](C)c3ccccn3)c12 [Compound 2, I-BET151] |  |  |  |  | pIC50 (BRD4 [13]): 6.10; cardiotoxicity [14]: exhibited cardiotoxicity; tumor cell proliferation (tumor cell): inhibit tumor cell proliferation; c-Myc expression (c-Myc expression): effectively downregulate
COCCNc1nnc2c3ccc(-c4c(C)noc4C)cc3n(Cc3ccc(F)cc3)c2n1 [Compound 13a] | 7.34 ± 0.04 | 3.93 | 10.7 |  | 
